Results from PubChem BioAssay AID1963848 (Molecular Pharmacology Branch, DTP, NCI, 2024).

System: 379773-124-R-J2-PDC spheroid viability
Assay: Anticancer human tumor 379773-124-R-J2-PDC patient-derived endometrial carcinoma cell line growth inhibition [POLQ]
Conditions: spheroids with HUVEC and MSC; for IC50: curve of first compound; for viability, T/C: stronger effect = lower value; active means viability on the fitted dose curve at most 10% of control; inactive means the rest
Summary of the method: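 Complex spheroid viability model combining PDC tumour cells with endothelial (HUVEC) and MSC stromal cells. Novobiocin, ART-558 or RP6685 were tested singly and in combination with standard and investigational anticancer drugs. Each was titrated in half-log steps from near clinical Cmax, or from 10 microM where Cmax was unknown.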

[1] = second compound 0.0316 µM, first compound 0.0316 µM
[2] = second compound 0.0316 µM, first compound 0.1 µM
[3] = second compound 0.0316 µM, first compound 0.316 µM
[4] = second compound 0.0316 µM, first compound 1 µM
[5] = second compound 0.0316 µM, first compound 3.16 µM
[6] = second compound 0.0316 µM, first compound 10 µM
[7] = second compound 0.1 µM, first compound 0.0316 µM
[8] = second compound 0.1 µM, first compound 0.1 µM
[9] = second compound 0.1 µM, first compound 0.316 µM
[10] = second compound 0.1 µM, first compound 1 µM
[11] = second compound 0.1 µM, first compound 3.16 µM
[12] = second compound 0.1 µM, first compound 10 µM
[13] = second compound 0.316 µM, first compound 0.0316 µM
[14] = second compound 0.316 µM, first compound 0.1 µM
[15] = second compound 0.316 µM, first compound 0.316 µM
[16] = second compound 0.316 µM, first compound 1 µM
[17] = second compound 0.316 µM, first compound 3.16 µM
[18] = second compound 0.316 µM, first compound 10 µM
[19] = second compound 1 µM, first compound 0.0316 µM
[20] = second compound 1 µM, first compound 0.1 µM
[21] = second compound 1 µM, first compound 0.316 µM
[22] = second compound 1 µM, first compound 1 µM
[23] = second compound 1 µM, first compound 3.16 µM
[24] = second compound 1 µM, first compound 10 µM
[25] = second compound 3.16 µM, first compound 0.0316 µM
[26] = second compound 3.16 µM, first compound 0.1 µM
[27] = second compound 3.16 µM, first compound 0.316 µM
[28] = second compound 3.16 µM, first compound 1 µM
[29] = second compound 3.16 µM, first compound 3.16 µM
[30] = second compound 3.16 µM, first compound 10 µM
[31] = second compound 10 µM, first compound 0.0316 µM
[32] = second compound 10 µM, first compound 0.1 µM
[33] = second compound 10 µM, first compound 0.316 µM
[34] = second compound 10 µM, first compound 1 µM
[35] = second compound 10 µM, first compound 3.16 µM
[36] = second compound 10 µM, first compound 10 µM
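Further: spheroids exposed to drugs for seven days before readout.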
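Wherever viability, T/C is given: percent viability relative to DMSO vehicle control taken as 100%.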

O=c1[nH]cc(F)c(=O)[nH]1 + COC1C(OC(N)=O)C(O)C(Oc2ccc3c(O)c(NC(=O)c4ccc(O)c(CC=C(C)C)c4)c(=O)oc3c2C)OC1(C)C
inactive: viability, T/C [1] 85.1% | viability, T/C [2] 83.2% | viability, T/C [3] 85.4% | viability, T/C [4] 80.3% | viability, T/C [5] 69.1% | viability, T/C [6] 51.8% | viability, T/C [7] 90.7% | viability, T/C [8] 88.8% | viability, T/C [9] 81.8% | viability, T/C [10] 86.2% | viability, T/C [11] 68.6% | viability, T/C [12] 61% | viability, T/C [13] 92.7% | viability, T/C [14] 90.4% | viability, T/C [15] 80.9% | viability, T/C [16] 78% | viability, T/C [17] 75.8% | viability, T/C [18] 56.6% | viability, T/C [19] 82.6% | viability, T/C [20] 77.2% | viability, T/C [21] 88.4% | viability, T/C [22] 74.6% | viability, T/C [23] 71.1% | viability, T/C [24] 60.3% | viability, T/C [25] 78.2% | viability, T/C [26] 82.6% | viability, T/C [27] 90.4% | viability, T/C [28] 70.8% | viability, T/C [29] 76.6% | viability, T/C [30] 57.5% | viability, T/C [31] 75.6% | viability, T/C [32] 78.5% | viability, T/C [33] 76.1% | viability, T/C [34] 71% | viability, T/C [35] 70.6% | viability, T/C [36] 55.3%
> 10 µM: IC50 (second compound 0.0316 µM) | IC50 (second compound 0.1 µM) | IC50 (second compound 0.316 µM) | IC50 (second compound 1 µM) | IC50 (second compound 3.16 µM) | IC50 (second compound 10 µM)

O=C(Nc1ccc(O)c(NS(=O)(=O)c2ccc(F)cc2)c1)c1ccc(-c2ccccc2)cc1 + Nc1ccc(C#CCN(C(=O)Cc2ncc(C(F)(F)F)cc2C(F)(F)F)c2ccc(F)cc2)nn1
> 10 µM: IC50 (second compound 0.0316 µM) | IC50 (second compound 0.1 µM) | IC50 (second compound 0.316 µM) | IC50 (second compound 1 µM) | IC50 (second compound 3.16 µM) | IC50 (second compound 10 µM)
inactive: viability, T/C [1] 85% | viability, T/C [2] 92.1% | viability, T/C [3] 85.8% | viability, T/C [4] 91.5% | viability, T/C [5] 89.8% | viability, T/C [6] 77.5% | viability, T/C [7] 89.8% | viability, T/C [8] 81.8% | viability, T/C [9] 90.8% | viability, T/C [10] 82.6% | viability, T/C [11] 89% | viability, T/C [12] 79.3% | viability, T/C [13] 91.9% | viability, T/C [14] 90.4% | viability, T/C [15] 84.1% | viability, T/C [16] 88.7% | viability, T/C [17] 92.2% | viability, T/C [18] 79.6% | viability, T/C [19] 96.6% | viability, T/C [20] 96.4% | viability, T/C [21] 89.1% | viability, T/C [22] 83.2% | viability, T/C [23] 93.8% | viability, T/C [24] 81% | viability, T/C [25] 94.4% | viability, T/C [26] 86.3% | viability, T/C [27] 88.8% | viability, T/C [28] 86.2% | viability, T/C [29] 86.7% | viability, T/C [30] 79.4% | viability, T/C [31] 94.2% | viability, T/C [32] 87.6% | viability, T/C [33] 87% | viability, T/C [34] 85.2% | viability, T/C [35] 86.5% | viability, T/C [36] 71.9%

Nc1ccn(C2OC(CO)C(O)C2(F)F)c(=O)n1 (stereo unspecified) + Cc1cccc(N(C)C(=O)C2C(O)CCN2c2nc(C)cc(C(F)(F)F)c2C#N)c1
active: viability, T/C [2] 9.7% | viability, T/C [3] 7.84% | viability, T/C [4] 9.16% | viability, T/C [5] 9.02% | viability, T/C [6] 7.36% | viability, T/C [9] 10.4% | viability, T/C [10] 8.24% | viability, T/C [11] 9.14% | viability, T/C [12] 8.33% | viability, T/C [15] 7.36% | viability, T/C [16] 9.63% | viability, T/C [17] 9.1% | viability, T/C [18] 9.51% | viability, T/C [20] 8.64% | viability, T/C [21] 7.94% | viability, T/C [22] 9.54% | viability, T/C [23] 10.9% | viability, T/C [24] 9.2% | viability, T/C [27] 8.82% | viability, T/C [28] 9.94% | viability, T/C [29] 10.1% | viability, T/C [30] 9.91%
inactive: viability, T/C [1] 25.1% | viability, T/C [7] 21% | viability, T/C [8] 11.4% | viability, T/C [13] 25.4% | viability, T/C [14] 11.3% | viability, T/C [19] 17.7% | viability, T/C [25] 21.1% | viability, T/C [26] 10.5% | viability, T/C [31] 15.7% | viability, T/C [32] 10.8% | viability, T/C [33] 12.1% | viability, T/C [34] 11.4% | viability, T/C [35] 13.6% | viability, T/C [36] 11.1%
< 0.0316 µM: IC50 (second compound 0.0316 µM) | IC50 (second compound 0.1 µM) | IC50 (second compound 0.316 µM) | IC50 (second compound 1 µM) | IC50 (second compound 3.16 µM) | IC50 (second compound 10 µM)
